Source: US5200329A, “Method of hydroxylating 3-[(4,7-dichlorobenzoxazol-2-yl)methyl]amino-5-ethyl-6-methyl-2-(1H)-pyr idinone by incubation with liver slices” (Merck & Co., Inc., priority 1992, dated 1993)

What was measured:
[1] = target: T1, recombinant HIV reverse transcriptase (HIV RTR) (Human immunodeficiency virus type 1 group M subtype B, UniProt P04585); assay: Reverse Transcriptase Assay (incorporation of tritiated deoxyguanosine monophosphate into acid-precipitable cDNA); type: biochemical; conditions: poly r(C).oligo d(G)12-18 and dGTP at about Km; 37° C., 45 minutes
T1 construct: recombinant HIV reverse transcriptase (HIV RTR)
Procedure: The assay measures the incorporation of tritiated deoxyguanosine monophosphate by recombinant HIV reverse transcriptase (HIV RTR) (or other RT) into acid-precipitable cDNA at the Km values of dGTP and poly r(C).oligo d(G)12-18.
Thirty uL of a reaction mixture containing equal volumes of: 500 mM Tris.HCl (pH 8.2), 300 mM MgCl2, 1200 mM KCl, 10 mM DTT, 400 μg/mL poly r(c).oligo d(G) [prepared by dissolving 1.5 mg (25 U) poly r(C).oligo d(G) in 1.5 ml sterile distilled H2 O and diluting to 400 μg/ml], 0.1 μCi/μl [^3 H] dGTP, 160 μM dGTP, was added to 10 μl sterile distilled H2 O, and 2.5 μl of potential inhibitor. An aliquot of 10 μL of 5 nM purified HIV RTR was added to initiate thereaction. The mixture was incubated at 37° C. for 45 minutes.
After incubation is complete, the tubes were cooled in ice for 5 minutes. Ice-cold 13% TCA containing 10 mM NaPPi (200 μl) are added and the mixture incubated on ice for 30 minutes. The precipitated cDNA is removed by filtration using presoaked glass filters [TCA, NaPPi ]. The precipitate is then washed with 1N HCl, 10 mM NaPPi.
The filter discs are then counted in a scintillation counter.
Under these conditions [dGTP] and poly r(C).oligo d(G)12-18 each are approximately equal to the appropriate Km value. Approximately 5-6,000 cpm of [^3 H] GMP are incorporated into acid-precipitable material. The RT reaction is concentration- and time-dependent. […] The calculated IC50 value for the compounds (Ia) and (Ib) of this incertion are as follows: […]

[2] = Incubation With Human Liver Slices (metabolite formation by HPLC); type: in vitro ADME; conditions: 2.85 μmol compound (II), 1.25 g wet weight liver slices (donor), Williams' Medium E, 37° C., four hours
Procedure: Compound (II) (2.85 μmol) was incubated with liver slices (1.25 g wet weight) from a human donor in 20 ml of Williams' Medium E at 37° C. under an atmosphere of 5% CO2 in air for four hours. The metabolites were extracted into ethyl acetate followed by evaporation of the solvent. The residue was reconstituted in methanol and compared on HPLC with an extract of rat liver slice incubation of compound (II). The HPLC effluents were monitored by a UV-diode array detector, and fractionated for liquid scintillation spectrophotometry.

Compound | IC50 [1] | formation of metabolites indicated by HPLC comparisons of UV and radioactivity profiles [2]
Cc1[nH]c(=O)c(NCc2nc3c(Cl)ccc(Cl)c3o2)cc1C(C)O (racemic) [Ia, 3-[(4,7-dichlorobenzoxazol-2-yl)methylamino]-5-(1-hydroxyethyl)-6-methylpyridin-2(1H)-one] | 1.05 µM | 
CCc1cc(NCc2nc3c(Cl)ccc(Cl)c3o2)c(O)nc1C [Compound II, 3-[(4,7-dichlorobenzoxazol-2-yl)-methyl]amino-5-ethyl-6-methyl-2(1H)-pyridinone] | 0.02 µM | formation of Ia and Ib in the human liver slices incubation
CCc1cc(NCc2nc3c(Cl)ccc(Cl)c3o2)c(=O)[nH]c1CO [Ib, 3-[(4,7-dichlorobenzoxazole-2-yl)methylamino]-5-ethyl-6-hydroxymethylpyridi n-2(1H)-one] | 0.014 µM | 
